Measurements taken from patent US20100130457A1, “Phenothiazine Derivatives for Treatment of Asthma” (Immune Control, Inc., priority 2008, published 2010).
Entries after “also recorded” stand apart in the source; their conditions may differ. Where two headings read alike, the source gives them in different places.

How the values were obtained:
[1] = molecular target: T1, muscarinic receptor M3 (Homo sapiens, UniProt P20309); assay: In vitro functional antagonism; assay type: biochemical
[2] = molecular target: Nav1.5 (Homo sapiens, UniProt Q14524); assay: Effects on action potential in a mammalian cell, sodium channel block; assay type: cell-based
Source text: Voltage-gated sodium channels are responsible for the initial phase of the action potential, which is a wave of electrical depolarisation usually initiated at the soma of the neuron and propagated along the nerve axon to the terminals. At the terminals, the action potential triggers the influx of calcium and the release of neurotransmitter. The voltage-gated sodium channel family is made up of four brain specific subtypes, Nav1.1, 1.2, 1.3 and 1.6; as well as Nav1.4, which is found on skeletal muscle; Nav1.5, which is found on cardiac muscle; and Nav1.7, 1.8, 1.9, are found predominantly on sensory neurons.
The effects of ICI-735 on action potential in a mammalian cell was tested. Briefly, it was observed that ICI-735 was able to block Nav1.5.

[3] = system: isolated rabbit Purkinje fibers; assay: Action potential of isolated rabbit Purkinje fibers
Source text: Further assessment in rabbit Punkinje fibers was undertaken to directly measure concentration-dependent changes in action potential induced by ICI-735.

[4] = molecular target: T1, muscarinic receptor M3; assay: Receptor binding
[5] = molecular target: 5-HT2A receptor (Homo sapiens, UniProt P28223); assay: Serotonin-receptor binding assay; details: 10 μM and 0.1 μM
Source text: (§1) The methods employed in this study have been adapted from the scientific literature to maximize reliability and reproducibility. The experiments include contacting a serotonin type 1A, 1B, 1D, 2A, 2B, 2C, 3, 4, 5A, 6, and 7 receptor with a test compound and comparing the level of binding of serotonin or a control compound (e.g., fluphenazine) with that serotonin type 1A, 1B, 1D, 2A, 2B, 2C, 3, 4, 5A, 6, and 7 receptor with the level of serotonin binding or control compound binding with an otherwise identical serotonin type 1A, 1B, 1D, 2A, 2B, 2C, 3, 4, 5A, 6, and 7 receptor not contacted with the test compound. […] The skilled artisan would also appreciate, in view of the disclosure provided herein, that standard binding assays known in the art, or those to be developed in the future, can be used to assess the binding of serotonin or a control compound with a serotonin type 1A, 1B, 1D, 2A, 2B, 2C, 3, 4, 5A, 6, and 7 receptor in the presence or absence of the test compound to identify a useful compound.
(§2) ICI-735 and fluphenazine were tested for selective binding to 1A, 1B, 1D, 2A, 2B, 2C, 3, 4, 5A, 6, and 7 receptors at concentrations of 10 μM and 0.1 μM.

[6] = molecular target: 5-HT7 receptor (Homo sapiens, UniProt P34969); assay: Serotonin-receptor binding assay; details: 10 μM and 0.1 μM
Source text: as §1, §2

[7] = molecular target: 5-HT1B receptor (Homo sapiens, UniProt P28222); assay: Serotonin-receptor binding assay; details: 10 μM and 0.1 μM
Source text: as §1, §2

[8] = system: AdrR2 receptor; assay: Receptor binding
[9] = molecular target: hCav1.2 (Homo sapiens, UniProt Q13936); assay: Cardiac ion channels expressed in mammalian cells; assay type: cell-based; details: 0.1 μM, 1 μm, 10 μm, and 100 μm
Source text: Opening of voltage-gated calcium channels results in influx of calcium ions into the cell. This influx of calcium plays an important role in excitation-contraction coupling in cardiac and skeletal muscle fibers. The reversal potential for calcium is extremely positive, so calcium current is almost always inward, resulting in an action potential plateau in many excitable cells. These channels are the target of calcium channel blocker subtype of antihypertensive drugs. The alpha-1 subunit forms the ion conducting pore, with several modulating auxiliary subunits. Major subtypes of voltage-gated calcium channels include L-type (Cav1.1, Cav1.2, Cav1.3, Cav1.4), T-type (Cav3.1, Cav3.2, Cav3.3), N-type (Cav2.2), P-type (Cav2.1), and R-type (Cav2.3).
Mammalian cells were treated with ICI-735 (0.1 μM, 1 μm, 10 μm, and 100 μm) to determine whether ICI-735 blocked the expression of cardiac ion channels. It was observed that ICI-735 was able to block the expression of both hERG and hCav1.2). Without wishing to be bound by any particular theory, it is believed that the blocks in hERG and calcium channels may cancel one another physiologically, but sodium channel effect may lead to changes in membrane potential.

[10] = system: MPR1-MDCK; assay: MPR1-MDCK permeability, potential to cross the blood-brain barrier; assay type: in vitro ADME; details: from A-B Papp and efflux ratio
Source text: (§3) A criterion for selecting an agent for proceeding to clinical trials is whether the compound crosses the blood-brain barrier. […] Fluphenazine (ICI-01175) is used as a control compound that has the potential to cross the blood-brain barrier. Table 1 summarizes the results of the test compounds for their potential to cross the blood-brain barrier.

[11] = as above; assay type: in vitro ADME; details: dog, MDCK
Source text: as §3

T1 sequence (P20309 whole entry): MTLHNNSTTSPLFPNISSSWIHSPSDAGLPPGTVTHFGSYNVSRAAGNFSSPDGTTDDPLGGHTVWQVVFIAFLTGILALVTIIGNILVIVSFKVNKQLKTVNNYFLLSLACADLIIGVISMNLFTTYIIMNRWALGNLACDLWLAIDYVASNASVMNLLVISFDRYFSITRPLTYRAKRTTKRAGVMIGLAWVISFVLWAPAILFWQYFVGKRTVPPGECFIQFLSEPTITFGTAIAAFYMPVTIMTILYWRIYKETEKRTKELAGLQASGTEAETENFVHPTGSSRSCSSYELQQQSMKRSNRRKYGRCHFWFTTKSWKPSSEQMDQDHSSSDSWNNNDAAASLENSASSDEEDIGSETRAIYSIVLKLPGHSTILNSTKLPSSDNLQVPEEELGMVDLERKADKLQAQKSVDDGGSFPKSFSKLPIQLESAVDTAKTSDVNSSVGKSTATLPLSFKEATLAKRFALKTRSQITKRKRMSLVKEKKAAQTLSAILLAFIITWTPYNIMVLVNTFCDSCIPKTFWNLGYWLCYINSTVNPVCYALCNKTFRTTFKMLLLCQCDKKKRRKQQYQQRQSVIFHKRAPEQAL
Sequence of 5-HT2A receptor (P28223 whole entry): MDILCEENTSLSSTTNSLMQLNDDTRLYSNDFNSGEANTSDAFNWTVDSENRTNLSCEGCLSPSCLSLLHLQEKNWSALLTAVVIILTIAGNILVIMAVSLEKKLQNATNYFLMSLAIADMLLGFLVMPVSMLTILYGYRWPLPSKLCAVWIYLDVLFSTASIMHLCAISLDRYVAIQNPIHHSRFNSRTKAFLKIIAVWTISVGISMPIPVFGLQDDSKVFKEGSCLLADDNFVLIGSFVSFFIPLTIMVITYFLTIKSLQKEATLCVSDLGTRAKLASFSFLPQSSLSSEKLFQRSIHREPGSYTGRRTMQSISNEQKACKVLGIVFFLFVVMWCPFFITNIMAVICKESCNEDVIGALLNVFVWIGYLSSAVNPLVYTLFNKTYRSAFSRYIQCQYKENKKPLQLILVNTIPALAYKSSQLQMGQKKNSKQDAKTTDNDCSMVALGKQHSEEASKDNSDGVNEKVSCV
Sequence of Nav1.5 (Q14524 whole entry): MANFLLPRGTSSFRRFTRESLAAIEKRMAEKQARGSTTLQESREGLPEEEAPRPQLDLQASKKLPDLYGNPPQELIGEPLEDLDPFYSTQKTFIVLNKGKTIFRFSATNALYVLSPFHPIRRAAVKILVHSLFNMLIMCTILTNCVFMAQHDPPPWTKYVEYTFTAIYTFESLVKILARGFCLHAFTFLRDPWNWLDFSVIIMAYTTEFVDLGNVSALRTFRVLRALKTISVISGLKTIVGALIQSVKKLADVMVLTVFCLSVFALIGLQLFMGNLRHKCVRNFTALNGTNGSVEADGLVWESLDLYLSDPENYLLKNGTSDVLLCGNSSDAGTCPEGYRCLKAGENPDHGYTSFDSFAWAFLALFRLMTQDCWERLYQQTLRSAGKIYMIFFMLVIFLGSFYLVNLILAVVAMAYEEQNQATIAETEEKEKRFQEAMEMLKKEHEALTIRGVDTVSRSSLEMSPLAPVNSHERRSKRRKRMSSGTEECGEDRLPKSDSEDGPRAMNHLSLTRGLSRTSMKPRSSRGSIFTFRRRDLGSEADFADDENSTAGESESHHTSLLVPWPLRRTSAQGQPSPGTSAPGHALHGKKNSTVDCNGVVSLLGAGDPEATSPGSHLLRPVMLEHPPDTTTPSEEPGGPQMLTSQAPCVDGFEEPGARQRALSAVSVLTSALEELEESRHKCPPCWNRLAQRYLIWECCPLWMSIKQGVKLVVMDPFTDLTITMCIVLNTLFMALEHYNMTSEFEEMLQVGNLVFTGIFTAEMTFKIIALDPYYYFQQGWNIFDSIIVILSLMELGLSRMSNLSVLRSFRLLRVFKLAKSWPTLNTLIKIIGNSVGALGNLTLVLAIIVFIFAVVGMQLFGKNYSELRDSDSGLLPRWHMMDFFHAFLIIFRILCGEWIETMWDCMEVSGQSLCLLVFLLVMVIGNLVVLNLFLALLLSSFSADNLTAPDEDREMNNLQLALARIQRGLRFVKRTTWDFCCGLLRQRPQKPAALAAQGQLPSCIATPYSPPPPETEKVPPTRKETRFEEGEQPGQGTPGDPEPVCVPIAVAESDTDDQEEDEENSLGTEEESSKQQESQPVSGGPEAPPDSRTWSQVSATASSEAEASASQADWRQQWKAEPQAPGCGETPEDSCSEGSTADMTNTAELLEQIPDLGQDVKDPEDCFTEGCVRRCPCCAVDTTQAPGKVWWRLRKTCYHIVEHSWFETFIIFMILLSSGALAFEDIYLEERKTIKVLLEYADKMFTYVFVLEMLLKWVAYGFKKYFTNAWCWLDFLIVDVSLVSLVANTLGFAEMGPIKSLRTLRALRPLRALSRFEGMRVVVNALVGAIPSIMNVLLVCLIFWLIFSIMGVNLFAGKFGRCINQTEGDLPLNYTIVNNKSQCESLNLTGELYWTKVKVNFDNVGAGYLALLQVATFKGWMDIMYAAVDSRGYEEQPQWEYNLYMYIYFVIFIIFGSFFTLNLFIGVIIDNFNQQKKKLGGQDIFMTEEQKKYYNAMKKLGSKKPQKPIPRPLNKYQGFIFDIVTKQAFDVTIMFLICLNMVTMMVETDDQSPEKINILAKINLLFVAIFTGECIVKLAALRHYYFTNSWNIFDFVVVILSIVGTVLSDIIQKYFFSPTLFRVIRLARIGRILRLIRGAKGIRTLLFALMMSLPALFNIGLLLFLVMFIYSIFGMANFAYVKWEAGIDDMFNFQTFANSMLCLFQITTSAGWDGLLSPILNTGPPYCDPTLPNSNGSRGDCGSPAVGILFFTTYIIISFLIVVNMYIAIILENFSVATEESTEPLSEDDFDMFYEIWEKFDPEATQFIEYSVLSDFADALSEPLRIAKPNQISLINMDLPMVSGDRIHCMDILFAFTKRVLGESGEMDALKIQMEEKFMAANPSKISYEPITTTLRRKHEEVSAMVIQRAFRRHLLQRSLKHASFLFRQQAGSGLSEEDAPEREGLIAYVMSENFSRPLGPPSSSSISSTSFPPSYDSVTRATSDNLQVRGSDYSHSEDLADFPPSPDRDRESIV
Sequence of 5-HT7 receptor (P34969 whole entry): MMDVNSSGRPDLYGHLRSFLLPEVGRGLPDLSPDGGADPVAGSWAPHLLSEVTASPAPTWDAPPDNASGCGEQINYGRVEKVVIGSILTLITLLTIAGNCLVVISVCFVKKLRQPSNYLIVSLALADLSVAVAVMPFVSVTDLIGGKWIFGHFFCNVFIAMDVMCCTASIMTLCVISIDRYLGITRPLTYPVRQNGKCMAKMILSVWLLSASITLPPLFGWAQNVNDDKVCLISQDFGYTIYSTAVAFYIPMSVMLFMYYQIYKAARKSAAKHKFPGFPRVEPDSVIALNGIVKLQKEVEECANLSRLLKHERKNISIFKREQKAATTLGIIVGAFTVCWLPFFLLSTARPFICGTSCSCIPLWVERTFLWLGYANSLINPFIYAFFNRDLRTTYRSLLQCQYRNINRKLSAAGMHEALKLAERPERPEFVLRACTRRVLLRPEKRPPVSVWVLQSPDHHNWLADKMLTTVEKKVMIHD
Sequence of 5-HT1B receptor (P28222 whole entry): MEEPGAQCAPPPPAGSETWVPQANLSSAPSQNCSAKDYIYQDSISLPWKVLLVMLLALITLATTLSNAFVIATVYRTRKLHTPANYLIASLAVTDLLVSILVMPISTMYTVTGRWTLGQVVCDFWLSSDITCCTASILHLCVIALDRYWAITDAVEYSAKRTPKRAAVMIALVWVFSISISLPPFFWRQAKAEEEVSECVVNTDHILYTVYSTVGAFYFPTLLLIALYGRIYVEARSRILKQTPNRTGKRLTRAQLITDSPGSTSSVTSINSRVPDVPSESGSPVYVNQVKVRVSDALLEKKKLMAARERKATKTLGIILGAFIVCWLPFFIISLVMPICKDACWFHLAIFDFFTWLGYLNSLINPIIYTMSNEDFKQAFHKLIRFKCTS

NCC(=O)NCCN1CCN(CCCN2c3ccccc3Sc3ccc(C(F)(F)F)cc32)CC1 [ICI-735]
in vitro functional antagonism for muscarinic receptor M3 [1]: weak in vitro functional antagonism; also recorded: weak or undetectable | IC50 [2]: 8.33 µM | block of Nav1.5 [2]: able to block | effect on action potential duration at 60% (APD60) and APD90 [3]: lack of effect | binding to muscarinic receptor M3 [4]: weak binding; also recorded: weak or undetectable | binding to 5-HT2A receptor as compared to fluphenazine [5]: decrease activity; also recorded: decreased binding | binding to 5-HT7 receptor as compared to fluphenazine [6]: significant increase activity; also recorded: increased binding | binding to 5-HT1B receptor as compared to fluphenazine [7]: significant increase activity; also recorded: increased binding | binding to AdrR2 receptor [8]: does not bind; also recorded: weak or undetectable | block of hCav1.2 [9]: able to block | Brain Penetration Classification [10]: Low (A-B Papp > 3.0 and Efflux Ratio > 10: Low) | Papp A→B ([11]; A-B direction): 0.23 ×10⁻⁶ cm/s | recovery ([11]; A-B direction, read-out: % Recovery A-B): 47% | Papp B→A ([11]; B-A direction): 28.6 ×10⁻⁶ cm/s | recovery ([11]; B-A direction, read-out: % Recovery B-A): 33% | efflux ratio ([11]; efflux ratio): 124
